Reference: US11883423B2, “Nucleobase analogue derivatives and their applications” (BOARD OF REGENTS, THE UNIVERSITY OF TEXAS SYSTEM, priority 2014, dated 2024)

How the values were obtained:
Panc-02 tumors = test: Antitumor activity against s.c. Panc-02 tumors in C57BL/6 mice; type: in vivo
Protocol: Therefore, the in vivo anti-tumor activity of Gem-DHA was also evaluated and compared to that of DHA alone in male C57BL/6 mice (6-8 weeks, Charles River) with subcutaneously (s.c.)
implanted Panc-02 tumors. Briefly, 1×10^6 cells were s.c. injected in the right flank of mice. Sixteen days later, mice were randomized into groups (n=12) and i.p. injected with Gem-DHA (˜55 mg/kg, […]) or DHA (˜33 mg/kg, ˜0.1 mmole/kg). Mice in the control group were i.p. injected with sterile 5% mannitol (w/v). Gem-DHA and DHA was dissolved in a Tween 80/ethanol/water solution with 5% (w/v) of mannitol. The doses were based on the average weight of mice in the same group on the first day of injection. The treatment was repeated twice a week for up to 6 doses. Tumor growth was monitored using a digital caliper, and tumor volume was calculated based on the longest diameter (L1) and the shortest diameter (L2) of each tumor using the equation of V=½×(L1×L2×L2).

[1] = tested on: NCI-60 human tumor cell lines; test: NCI-60 DTP Human Tumor Cell Line Screen, single dose; type: cell-based
Protocol: The cytotoxicity of Gem-DHA was also tested using the NCI-60 DTP Human Tumor Cell Line Screen service.

[2] = Biodistribution in TC-1 tumor-bearing mice; type: in vivo, C57BL/6 mice; details: 90 min after i.v. 75 mg/kg
Protocol: A biodistribution study was carried out in TC-1 tumor-bearing C57BL/6 mice. When tumor diameters reached 7-8 mm (i.e., about 4 weeks after tumor cell injection), mice were injected via the tail vein with a Gem-DHA solution (75 mg/kg). Ninety minutes later, mice were euthanized to collect tumors and major organs (e.g., liver, kidneys, spleen, lung, heart, and pancreas). Tissues were homogenized, and Gem-DHA was extracted using ethyl acetate as mentioned above and analyzed using HPLC.

Panc-02 cells = test: Apoptosis analysis, Annexin V staining and flow cytometry; type: cell-based, mouse; details: 48 h
Protocol: Apoptosis analysis was carried out as previously reported (Zhu S et al. Biomaterials. 2013, 34(9), 2327-2339). Briefly, 100,000 Panc-02 cells were incubated in 24-well plates for 24 h at 37° C. and 5% CO2 and then co-incubated with various concentrations of Gem-DHA for 48 h. The cells were then harvested and stained with 0.1 ml of Guava Nexin reagent (Millipore Corporation, Billerica, Mass.) for 20 min at room temperature, protected from light. The stained cells were analyzed using a Millipore Guava easyCyte 8HT Flow Cytometry System. Control cells were left untreated.

[3] = design: species or system BALB/c mice; details: female, BALB/c, mouse, in vivo, iv, 75 mg/kg, 1 h
Protocol: The biodistribution of Gem-DHA was further evaluated in healthy BALB/c mice. Briefly, female BALB/c mice (Charles River, 14-16 weeks, n=3) were injected via the tail vein with Gem-DHA in a Tween 80/ethanol/water solution containing 5% (w/v) mannitol at a dose of 75 mg/kg. After 1 h, mice were euthanized to collect pancreas, lung, spleen, liver, heart, and kidneys. Gem-DHA was extracted from the samples and analyzed using HPLC. As a control, mice (n=3) were also injected with gemcitabine HCl (75 mg/kg) in 5% (w/v) mannitol solution and euthanized 1 h later to collect their pancreas. Gemcitabine was extracted using the following method. Briefly, once the pancreas was collected, it was weighed, placed into 0.25 ml of PBS containing 40 μg of tetrahydrouridine (a deoxycytidine deaminase inhibitor) and homogenized using a bead beater. Deoxyuridine (dU, 20 μl of 20 μg/ml) was then added into the homogenate as an internal standard. Acetonitrile was used to precipitate the proteins twice, and gemcitabine content in the supernatant was analyzed using HPLC. […] Therefore, it appeared that Gem-DHA preferred to distribute in pancreatic tissues.

For `CC/C=C\C/C=C\C/C=C\C/C=C\C/C=C\C/C=C\CCC(=O)Nc1ccn(C2OC(CO)C(O)C2(F)F)c(=O)n1` (stereo not drawn) [Gem-DHA, 4-(N)-Docosahexaenoyl Difluorodeoxycytidine], the “Tolerability (body weights)” value (Panc-02 tumors; Panc-02 tumor-bearing mice, dosing regimen tested) was “well tolerated”, the “Inhibition of Panc-02 tumor growth” value (Panc-02 tumors; i.p., ~0.1 mmole/kg, twice a week, up to 6 doses) was “significantly inhibited the tumor growth” and the “Growth inhibition in NCI-60 screen” value [1] was “inhibited the growth of various types of human tumor cells”. For the same compound, the Distribution among organs [2] was “high percent of the injected Gem-DHA was in mouse pancreas”, the “Pro-apoptotic activity, Annexin V staining” value (Panc-02 cells) was “concentration-dependent apoptosis” and the “Percent of injected compound recovered in each gram of pancreas” value [3] was 0.37±0.18%.
